# According to publication PMC3922309, “Differential roles of tryptophan residues in conformational stability of Porphyromonas gingivalis HmuY hemophore” (BMC Biochemistry, 2014):
# What was measured:
# HmuY [1] = biological target: T1, HmuY (Porphyromonas gingivalis, UniProt A2BCY8); assay: heme titration of apoprotein (UV-visible / Trp fluorescence quenching), one-site model; type: binding
# T1 construct: polypeptide lacking the first 25 residues, plasmid pHmuY11, expressed in Escherichia coli ER2566, purified from soluble lysate
# HmuY [2] = biological target: HmuY (Porphyromonas gingivalis, UniProt A2BCY8, W161Y); assay: biochemical
# HmuY [3] = biological target: HmuY (Porphyromonas gingivalis, UniProt A2BCY8, W51Y); assay: biochemical
# HmuY [4] = biological target: HmuY (Porphyromonas gingivalis, UniProt A2BCY8, W51A); assay: biochemical
# HmuY [5] = biological target: HmuY (Porphyromonas gingivalis, UniProt A2BCY8, W161A); assay: biochemical
# HmuY [6] = biological target: HmuY (Porphyromonas gingivalis, UniProt A2BCY8, W73Y); assay: biochemical
# HmuY [7] = biological target: HmuY (Porphyromonas gingivalis, UniProt A2BCY8, W73A); assay: biochemical
# Sequence of HmuY (Porphyromonas gingivalis, UniProt A2BCY8, W73A) (A2BCY8 26-216 W73A): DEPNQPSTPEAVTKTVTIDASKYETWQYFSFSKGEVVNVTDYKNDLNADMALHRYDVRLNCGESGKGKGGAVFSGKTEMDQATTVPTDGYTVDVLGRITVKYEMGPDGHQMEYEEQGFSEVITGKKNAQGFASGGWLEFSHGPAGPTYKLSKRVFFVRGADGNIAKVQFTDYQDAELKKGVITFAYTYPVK
# T1 sequence (A2BCY8 entry or part of it): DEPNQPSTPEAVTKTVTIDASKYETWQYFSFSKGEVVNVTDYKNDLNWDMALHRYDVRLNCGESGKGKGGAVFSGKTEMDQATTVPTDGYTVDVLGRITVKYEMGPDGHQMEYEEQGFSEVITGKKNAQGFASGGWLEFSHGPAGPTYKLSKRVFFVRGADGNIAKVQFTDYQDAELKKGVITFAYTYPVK
# Sequence of HmuY (Porphyromonas gingivalis, UniProt A2BCY8, W51A) (A2BCY8 26-216 W51A): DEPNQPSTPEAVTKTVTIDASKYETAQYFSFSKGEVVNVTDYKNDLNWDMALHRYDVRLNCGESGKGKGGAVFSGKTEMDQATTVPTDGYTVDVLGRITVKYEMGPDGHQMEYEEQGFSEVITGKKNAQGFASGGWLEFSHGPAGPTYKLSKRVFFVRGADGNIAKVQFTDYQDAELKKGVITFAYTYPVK
# Sequence of HmuY (Porphyromonas gingivalis, UniProt A2BCY8, W51Y) (A2BCY8 26-216 W51Y): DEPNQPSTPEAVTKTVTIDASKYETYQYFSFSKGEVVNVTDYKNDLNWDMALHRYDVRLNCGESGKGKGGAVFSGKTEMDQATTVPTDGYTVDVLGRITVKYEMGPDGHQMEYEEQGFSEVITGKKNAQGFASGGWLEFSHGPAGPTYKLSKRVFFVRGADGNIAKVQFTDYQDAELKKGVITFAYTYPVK
# Sequence of HmuY (Porphyromonas gingivalis, UniProt A2BCY8, W73Y) (A2BCY8 26-216 W73Y): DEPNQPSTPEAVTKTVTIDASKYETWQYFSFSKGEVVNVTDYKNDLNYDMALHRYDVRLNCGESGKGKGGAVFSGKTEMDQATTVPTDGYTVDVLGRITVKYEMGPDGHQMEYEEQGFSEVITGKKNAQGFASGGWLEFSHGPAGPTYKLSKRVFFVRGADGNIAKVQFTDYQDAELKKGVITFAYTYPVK
# Sequence of HmuY (Porphyromonas gingivalis, UniProt A2BCY8, W161Y) (A2BCY8 26-216 W161Y): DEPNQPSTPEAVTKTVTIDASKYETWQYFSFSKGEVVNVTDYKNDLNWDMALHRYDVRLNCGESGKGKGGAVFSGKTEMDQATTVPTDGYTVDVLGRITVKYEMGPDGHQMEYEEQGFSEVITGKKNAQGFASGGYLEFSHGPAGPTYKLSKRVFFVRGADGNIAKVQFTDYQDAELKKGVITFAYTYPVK
# Sequence of HmuY (Porphyromonas gingivalis, UniProt A2BCY8, W161A) (A2BCY8 26-216 W161A): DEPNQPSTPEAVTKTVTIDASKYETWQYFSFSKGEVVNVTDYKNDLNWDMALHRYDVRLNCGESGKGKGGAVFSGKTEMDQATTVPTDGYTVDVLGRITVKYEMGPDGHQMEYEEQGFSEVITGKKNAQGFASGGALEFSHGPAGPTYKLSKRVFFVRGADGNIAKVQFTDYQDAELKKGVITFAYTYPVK
smiles,measurement,setting,value
C=CC1=C(C)C2=Cc3c(C=C)c(C)c4[n]3[Fe]([Cl])[n]3c(c(C)c(CCC(=O)O)c3=CC3=NC(=C4)C(C)=C3CCC(=O)O)=CC1=N2 [heme],Kd,HmuY [1],296 ± 12 nM
same,Kd,HmuY [2],235 ± 11 nM
same,Kd,HmuY [3],216 ± 7 nM
same,Kd,HmuY [4],303 ± 13 nM
same,Kd,HmuY [5],323 ± 16 nM
same,Kd,HmuY [6],238 ± 12 nM
same,Kd,HmuY [7],229 ± 8 nM
